Where “and” joins values, the source holds several entries; their conditions need not be identical. Identical values can stand only once. Entries after “also recorded” stand apart in the source; their conditions may differ.
How the values were obtained:
[1] = tested on: relapsed/refractory T-cell lymphoma (PTCL and CTCL); assay: Efficacy assessment (ORR, DoR), all evaluable patients; assay type: in vivo, human; conditions: for Median DoR (95% CI) / ORR (95% CI): All
Experimental: (§1) Efficacy assessments included radiological, bone marrow biopsy/aspiration and skin assessments. In some cases, bone marrow disease alone was used for disease assessment. In these cases, response was reported as CR or non-CR.
(§2) In PTCL patients, radiological assessment was performed at screening, Day 1 of Cycle 3 and 5 and approximately 12 weeks thereafter. Assessments of skin lesions in PTCL patients were performed, if applicable. Bone marrow biopsy/aspirate was performed in patients without measurable but assessable disease at screening and on Day 1 of Cycle 3 and 5, then also approximately 12 weeks thereafter to confirm a CR.
(§3) In CTCL patients, assessment of skin lesions was performed at screening, Day 1 of Cycle 3 and 5, approximately 12 weeks thereafter and at the end of treatment (EOT). Skin photographs were obtained for half body global and up to 5 selected representative index lesions at baseline, at Day 1 of Cycle 3, EOT, at PR/CR/progressive disease (PD) and as required as per the discretion of the Investigator. In case of nodal involvement, radiological assessment was performed at screening, Day 1 of Cycle 3 and 5 and approximately 12 weeks thereafter. Skin biopsy was performed from the most indurated area at screening, on C3D1 and to confirm a CR.
(§4) The efficacy parameters included ORR and DoR. Revised Response Criteria for Malignant Lymphoma (Cheson 2007) was used for evaluation of PTCL [21]. International Society for Cutaneous Lymphomas Response Criteria for Mycosis Fungoides and Sezary Syndrome (SS) and Cutaneous Lymphoma Task Force of the European Organization for Research and Treatment of Cancer criteria were used for evaluation of CTCL patients. For skin scoring, the modified Severity Weighted Assessment Tool was used. For local index lesion skin scoring, the Composite Assessment of Index Lesion Severity was used.

[2] = tested on: malignant patient derived primary CTCL cells; design: method as in ref 18 = [18]; 18. Mao G. Viswanadha S. Rhizen, Switzerland Unpublished work 2013; conditions: cited from earlier work
PI3K δ/γ = conditions: cited from earlier work
[3] = design: method as in ref 27 = [27]; 27. Barde P. Rhizen, Switzerland Unpublished work 2016; conditions: healthy volunteers, high fat meal; cited from earlier work
patients = conditions: cumulative safety data across two studies; cited from earlier work
CD30, IL-31 and IL-32α = assay: Correlative biomarker analysis in plasma; assay type: in vivo, human
Experimental: Assessment of CD30 and soluble IL-2 receptor (sIL-2R) for PTCL and cutaneous T-cell attracting chemokine (CTACK), IL-31 and IL-32α for CTCL were performed in plasma at screening, pre-dose and after 1 h on Day 1 of Cycle 3, at EOT and/or to confirm a response.

relapsed/refractory CTCL = assay: Efficacy assessment (ORR, DoR), CTCL patients; assay type: in vivo, human; conditions: for Median DoR (95% CI) / ORR (95% CI): CTCL
Experimental: as §1, §3, §4

relapsed/refractory PTCL = assay: Efficacy assessment (ORR, DoR), PTCL patients; assay type: in vivo, human; conditions: for Median DoR (95% CI) / ORR (95% CI): PTCL
Experimental: as §1, §2, §4

[4] = tested on: patient-derived primary cell lines representative of B and T lymphoma cell lines; design: method as in doi:10.1182/blood.V122.21.4418.4418; conditions: cited from earlier work
[5] = Dose Escalation 800 mg Fasting, N = 3
[6] = Dose Escalation 800 mg Fed, N = 5
[7] = Dose Expansion 800 mg Fasting, N = 22
[8] = CTCL group, Cycle 3 Day 1 compared to baseline, correlated with responses
[9] = Dose Escalation 800 mg Fasting, N = 2
[10] = Dose Escalation 800 mg Fed, N = 4
[11] = Dose Expansion 800 mg Fasting, N = 12
[12] = Dose Escalation 800 mg Fasting, N = 1
[13] = Dose Expansion 800 mg Fasting, N = 10

CC[C@H](Nc1ncnc2[nH]cnc12)c1oc2ccccc2c(=O)c1-c1cccc(F)c1 [Tenalisib]
Complete response (CR), number of patients ([1]; 35 evaluable patients): 3 patients
Partial response (PR) ([1]; 35 evaluable patients): 13 n (%) and 13 (37%) n (%)
Progressive disease (PD) ([1]; 35 evaluable patients): 8 (22.9%) n (%)
Complete response (CR) ([1]; 35 evaluable patients, three patients): 9%
Median DoR (95% CI) ([1]; Cumulative Total, N = 35): 4.9 months and 4.9 (4.3, 12.0) months
ORR (95% CI) ([1]; Cumulative Total, N = 35): 45.7% and 45.7 (28.8, 63.4) %
Median DoR (95% CI) ([1]; Dose Escalation 200 mg, N = 3): 4.9 (-,-) months
ORR (95% CI) ([1]; Dose Escalation 200 mg, N = 3): 33.3 (0.8, 90.6) %
Median DoR (95% CI) ([1]; Dose Escalation 400 mg, N = 2): 2.4 (0.97, 3.8) months
ORR (95% CI) ([1]; Dose Escalation 400 mg, N = 2): 100.0 (15.8, 100.0) %
Median DoR (95% CI) [1, 5]: 10.9 (2.3, 19.5) months
ORR (95% CI) [1, 5]: 66.7 (9.4, 99.2) %
Median DoR (95% CI) [1, 6]: 3.3 (1.7, 4.9) months
ORR (95% CI) [1, 6]: 40.0 (5.3, 85.3) %
Median DoR (95% CI) ([1]; Dose Escalation Total, N = 13): 3.8 (0.7, 10.2) months
ORR (95% CI) ([1]; Dose Escalation Total, N = 13): 53.8 (25.1, 80.8) %
Median DoR (95% CI) [1, 7]: 7.5 (4.7, 15.9) months
ORR (95% CI) [1, 7]: 40.9 (20.7, 63.6) %
Patients who responded ([1]; out of 35 evaluable patients): 16 patients
Time of response ([1]; responders): Most of the patients responded at Cycle 3 Day 1
Ex-vivo activity [2]: shown ex-vivo activity
Inhibitory potency (PI3K δ/γ; PI3K δ/γ): nanomolar
Selectivity over α and β PI3K isoforms (PI3K δ/γ): several fold
Effect of food on Cmax [3]: no significant effect on Cmax
Effect of food on overall exposure [3]: increased the overall exposure
Colitis and pneumonitis events (patients): no events of colitis and pneumonitis
Transaminitis incidence (patients): 10%
Plasma IL-31 levels (CD30, IL-31 and IL-32α; [8]): marked downregulation; also recorded: reductions
Plasma IL-32α levels (CD30, IL-31 and IL-32α; [8]): marked downregulation; also recorded: reductions
Plasma CD30 levels (CD30, IL-31 and IL-32α; PTCL patients, baseline to Cycle 3 Day 1, correlated with response): marked downregulation; also recorded: decrease in CD30 levels
Partial response (PR), number of patients (relapsed/refractory CTCL; CTCL patients): 9 patients
Median DoR (95% CI) (relapsed/refractory CTCL; Cumulative Total, N = 20): 3.8 months and 3.8 (2.3, 12.8) months
ORR (95% CI) (relapsed/refractory CTCL; Cumulative Total, N = 20): 45% and 45.0 (23.1, 68.5) %
ORR (95% CI) (relapsed/refractory CTCL; Dose Escalation 200 mg, N = 1): 0.0 (0.0, 97.5) %
Median DoR (95% CI) (relapsed/refractory CTCL; Dose Escalation 400 mg, N = 1): 3.8 (-,-) months
ORR (95% CI) (relapsed/refractory CTCL; Dose Escalation 400 mg, N = 1): 100.0 (2.5, 100.0) %
Median DoR (95% CI) (relapsed/refractory CTCL; [9]): 2.3 (-,-) months
ORR (95% CI) (relapsed/refractory CTCL; [9]): 50.0 (1.3, 98.7) %
Median DoR (95% CI) (relapsed/refractory CTCL; [10]): 3.3 (1.7, 4.9) months
ORR (95% CI) (relapsed/refractory CTCL; [10]): 50.0 (6.8, 93.2) %
Median DoR (95% CI) (relapsed/refractory CTCL; Dose Escalation Total, N = 8): 3.05 (1.7, 4.6) months
ORR (95% CI) (relapsed/refractory CTCL; Dose Escalation Total, N = 8): 50.0 (15.7, 84.3) %
Median DoR (95% CI) (relapsed/refractory CTCL; [11]): 10.3 (2.6, 19.6) months
ORR (95% CI) (relapsed/refractory CTCL; [11]): 41.7 (15.2, 72.3) %
Partial response (PR) (relapsed/refractory PTCL; PTCL patients): 4 (26.7%) n (%)
Complete response (CR) (relapsed/refractory PTCL; PTCL patients, three patients): 20%
Median DoR (95% CI) (relapsed/refractory PTCL; Cumulative Total, N = 15): 6.5 months and 6.5 (2.9, 14.9) months
ORR (95% CI) (relapsed/refractory PTCL; Cumulative Total, N = 15): 46.7% and 46.7 (21.3, 73.4) %
Median DoR (95% CI) (relapsed/refractory PTCL; Dose Escalation 200 mg, N = 2): 4.9 (-,-) months
ORR (95% CI) (relapsed/refractory PTCL; Dose Escalation 200 mg, N = 2): 50.0 (1.3, 98.7) %
Median DoR (95% CI) (relapsed/refractory PTCL; Dose Escalation 400 mg, N = 1): 0.97 (-,-) months
ORR (95% CI) (relapsed/refractory PTCL; Dose Escalation 400 mg, N = 1): 100.0 (2.5, 100.0) %
Median DoR (95% CI) (relapsed/refractory PTCL; [12]): 19.5 (-,-) months
ORR (95% CI) (relapsed/refractory PTCL; [12]): 100.0 (2.5, 100.0) %
ORR (95% CI) (relapsed/refractory PTCL; Dose Escalation 800 mg Fed, N = 1): 0.0 (0.0, 97.5) %
Median DoR (95% CI) (relapsed/refractory PTCL; Dose Escalation Total, N = 5): 4.9 (0.0, 19.5) months
ORR (95% CI) (relapsed/refractory PTCL; Dose Escalation Total, N = 5): 60.0 (14.7, 94.7) %
Median DoR (95% CI) (relapsed/refractory PTCL; [13]): 7.0 (1.2, 17.3) months
ORR (95% CI) (relapsed/refractory PTCL; [13]): 40.0 (12.2, 73.8) %
Median DoR (relapsed/refractory PTCL; three PTCL patients who achieved CR): 13.3 months
Apoptotic and anti-proliferative activity [4]: demonstrated apoptotic and anti-proliferative activity

From article PMC7463651, “Phase I/Ib Study of Tenalisib (RP6530), a Dual PI3K δ/γ Inhibitor in Patients with Relapsed/Refractory T-Cell Lymphoma” (Cancers, 2020)
